Key:
PI4KIIIalpha = molecular target: T1, PI4KIIIalpha (Homo sapiens, UniProt P42356); assay: PI-kinase assay, PI4KIIIalpha (Table 4); assay type: biochemical
T1 construct: made in house; host or cells: COS-7 cells, transient transfection, anti-HA immunoprecipitate on protein G Sepharose beads
Description: (§1) PI-kinase assay: Compounds are tested in C.1.1. PT kinase assays as described by Shokat et al., “A membrane capture assay for lipid kinase activity.” Nat. Protoc. 2007; 2(10):2459-66.
(§2) General methods of materials: In the assays described here, p110α-p85 complex and p110γ were acquired from Millipore. Assays were performed with La-phosphatidylinositol (Avanti) as described in Knight et al. Nat Protoc. 2007; 2 (10):2459-66. Inhibitor series were prepared 10% DMSO as 5× stocks for the assay. Assays of HsVps34 were performed as described in Knight et al, except that the final assay buffer composition used was changed to 20 mM HEPES 7.5, 100 mM NaCl, 3 mM MgCl, 1 mg/mL PI and 44 nM hvps34 was used in the assay. […] COS-7 cells were cultured in 10 cm dishes and transfected at 70% confluence with 10 μg of plasmid DNA (HA-tagged bovine PI4KIIIβ. HA-tagged human PI4KIIIα) using Lipofectamine 2000 and 5 ml Opti-MEM following the manufacturer's instructions. After 5 hours the transfection medium was replaced with 10 ml complete DMEM. 36 hrs post transfection, cells were washed once with 5 ml PBS (pH 7.4) and lysed in 1 ml of lysis buffer (1) on ice. Lysates were collected by scraping and after 15 min they were centrifuged at 13.000 rpm for 10 min. To the lysates was added 200 gi of protein G Sepharose 4 fast flow beads that were prewashed with PBS and lysis buffer and 2 sg of anti-HA antibody. The tubes were then incubated overnight at 4 degrees C. in a tube rotator. The Sepharose beads in the lysate were washed twice with 150 mM NaCl in RIPA buffer, twice with RIPA buffer and once with kinase buffer (50 mM Tris/HCl, pH 7.5, 20 mM MgCl2, 1 mM EFTA, 1 mM PtdIns, 0.4% Triton X-100, 0.5 mg/mL BSA) and finally the beads were resuspended in 200 μL kinase buffer. Kinase reactions were run in a mixture of 45 μL of PI buffer (1 mM P1 in kinase buffer), 10 μL of immunoprecipitated beads, 2 µL of inhibitors (dissolved and diluted in DMSO) or DMSO and 5 μL of [γ-^32P]-ATP (1 mM and 2 μCi/tube). The immunoprecipitates in PI buffer were pre-incubated with the drugs for 20 min prior the initiation of kinase reaction by adding ATP and the reactions were carried out for 30 min in 15 ml polyproplyene tubes. Reactions were terminated by addition of 3 ml of CHCl3:CH3OH:HCl (200:100:0.75) followed by 0.6 ml of 0.61N HCl to induce phase separation. The mixtures were vortexed, centrifuged at 2000 rpm for 2 min and the upper phase was discarded. To the lower phase was added 1.5 ml of CHCl3:CH3OH:0.6N HCl (3:48:47) and the mixture vortexed and centrifuged at 2000 rpm for 2 ruin. The lower phase was then transferred to counting vials and evaporated. Samples were counted in a scintillation beta counter after adding 5 ml of Instafluor (Perkin-Elmer).
(§3) Selected compounds of Tables 1-3 were prepared and tested for inhibition activity in a variety of kinase assays.

[1] = Cell toxicity (CC50) in BK virus assay
EV-71 virus = assay: Survival of AG129 mice challenged with EV-71; assay type: in vivo; settings: EV-71 10^6.5 CCID50/mouse i.p., treated b.i.d. for five days per os starting four hours post-infection
Description: FIG. 4 illustrates the survival of four-week-old AG129 mice challenged with EV-71 virus and treated with exemplary Compound B. Groups of eight AG129 nice were challenged with EV-71 at 10^6.5 CCID50/mouse via the i.p. route. Mice were treated b.i.d. for five days per os with doses of Compound B as shown, starting four hours post-infection. Placebo-treated mice received a vehicle control on the same schedule. Mice treated with IVIg, as a positive control, received a single administration of 100 mg/kg via the i.p. route four hours post-infection. […] (*P<0.05, **P<0.01).

lung cancer cell lines [2] = assay: Colony formation in soft agar and on plastic; assay type: cell-based, human; settings: panel of lung cancer cell lines
Description: (§4) Human lung cancer cells (A549, H1299, H460, H23, H2122, and H3122) were cultured in RPMI 1640 containing 10% FBS. Cells were maintained at 37° C. in an incubator with a humidified atmosphere containing 5% CO2.
(§5) To assess the anti-cancer activity of exemplary PI4K antagonists, a panel of lung cancer cell lines annotated for the presence or absence of PI4K amplifications were treated with PI4K inhibitors (IN-9, TN-10, or compound B) that have greater than 1000-fold selectivity […] PI4KIIIβ over class I and class III PI3K family members. […] IC50 values were even lower with the presence of PI4K amplifications.
(§6) PI4KIIIβ is a target in human cancers, including lung adenocarcinoma. (FIG. 1A). PI4P concentrations in H2122 cells (dots) treated in triplicate (dots) with Compound B or vehicle dimethyl sulfoxide (DMS). (FIG. 1B) Relative densities of PI4-kinase-amplified (red) and -diploid (black) human lung adenocarcinoma cell lines determined by WST-1 assays after 5 days of Compound B treatment. Results expressed relative to the lowest dose, which was set at 100%. (FIG. 1B, right panel) Half maximal inhibitory (IC50) concentrations of compound B determined from FIG. 1B, left panel. (FIG. 1C) Migrated and invaded 1-23 human lung adenocarcinoma cells in Transwell chambers were photographed (images) and counted (bar graphs) after treatment with compound B. Results expressed relative to DMSO-treated cells, which were set at 1.0. (FIG. 1C, right panel). Colonies formed by H2122 human lung cancer cells in soft agarose (FIG. 1D) and on plastic (FIG. 1E) were photographed (images) and counted (bar graphs) after 7 days of treatment with the indicated doses of compound B or vehicle DMSO (0 M). Results expressed relative to DMSO control, which were set at 1.0. PI4-kinase inhibition leads to selective cytotoxicity for cancer cells (FIG. 1F).

[3] = test system: BK virus (Polyomaviridae); assay: BK virus antiviral assay (EC50); assay type: cell-based; settings: Betapolyomavirus hominis
PI4KIIIbeta = molecular target: T2, PI4KIIIbeta (Bos taurus, UniProt O02810); assay: PI-kinase assay, PI4KIIIbeta (Table 4); assay type: biochemical, bovine
T2 construct: made in house; host or cells: COS-7 cells, transient transfection, anti-HA immunoprecipitate on protein G Sepharose beads
Description: as §1, §2, §3

lung cancer cell lines [4] = assay: PI4P levels in lung cancer cell lines; assay type: cell-based, human; settings: panel of lung cancer cell lines
Description: as §4, §5, §6

[5] = test system: H2122 human orthotopic lung tumors; assay: H2122 human orthotopic lung tumors in nu/nu mice; assay type: in vivo; settings: 20 or 40 mg/kg plus 20 mg/kg ritonavir, subcutaneously twice daily for three weeks
Description: Mice received standard care and were euthanized according to the standards set forth by the Institutional Animal Care and Use Committee. To generate orthotopic lung tumors using human lung adenocarcinoma cell lines, nu/nu mice (n=10 mice per cohort) were subjected to intrathoracic injection with 10^6 human tumor cells, necropsied after a week or more of treatment, and primary tumor size and the number of metastases on the contralateral lung surface measured. […] Drugs were administered subcutaneously twice daily for three weeks. On the last day of treatment, mice were subjected to micro-computed tomography to measure primary tumor size. The following day, mice were necropsied to measure primary tumor size, count metastases to the contralateral lung, and obtain lung tissues for analysis. […] Drugs were administered intraperitoneally twice daily for 8 days. On the last day of treatment, mice were subjected to micro-computed tomography to measure primary tumor size. The following day, mice were necropsied to measure primary tumor size, count metastases to the contralateral lung, and obtain lung tissues.

[6] = test system: Human HPV (Papillomaviridae); assay: Human HPV antiviral assay (EC50); assay type: cell-based, human papilloma virus; settings: Human papillomavirus, read-out: Human HPV (Papillomaviridae) EC50
lung cancer cell lines [7] = assay: Migration and invasion in Boyden chambers; assay type: cell-based, human; settings: panel of lung cancer cell lines
Description: as §4, §5, §6

[8] = Cell toxicity (CC50) in HPV assay
lung cancer cell lines [9] = assay: Cell proliferation in monolayer culture (WST-1); assay type: cell-based, human; settings: panel of lung cancer cell lines
Description: as §4, §5, §6

PI3KC2γ = PI3KC2γ (Homo sapiens, UniProt O75747); settings: cited from earlier work
PI4K2α = PI4K2α (Homo sapiens, UniProt Q9BTU6); settings: at concentrations up to 20 μM; cited from earlier work
PI3Kβ = PI3Kβ (Homo sapiens, UniProt P42338); settings: at concentrations up to 20 μM; cited from earlier work
PI3Kα = PI3Kα (Homo sapiens, UniProt P42336); settings: cited from earlier work
PI4K2β = PI4K2β (Homo sapiens, UniProt Q8TCG2); settings: at concentrations up to 20 μM; cited from earlier work
PI4K2β, sequence (Q8TCG2 whole entry): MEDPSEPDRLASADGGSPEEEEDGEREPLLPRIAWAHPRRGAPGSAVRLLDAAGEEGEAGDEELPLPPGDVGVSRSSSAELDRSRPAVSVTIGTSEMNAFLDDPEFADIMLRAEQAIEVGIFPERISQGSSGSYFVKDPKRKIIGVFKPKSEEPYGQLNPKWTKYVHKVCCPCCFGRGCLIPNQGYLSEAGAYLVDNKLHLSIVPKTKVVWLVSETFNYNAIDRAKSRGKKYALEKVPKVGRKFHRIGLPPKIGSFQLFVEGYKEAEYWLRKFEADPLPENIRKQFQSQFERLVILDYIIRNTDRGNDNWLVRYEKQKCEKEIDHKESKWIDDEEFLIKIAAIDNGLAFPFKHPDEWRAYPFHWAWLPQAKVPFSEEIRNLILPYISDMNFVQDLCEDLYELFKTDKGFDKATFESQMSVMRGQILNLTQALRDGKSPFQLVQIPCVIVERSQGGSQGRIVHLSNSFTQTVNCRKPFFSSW

PI3KC2γ, sequence (O75747 whole entry, species assumed): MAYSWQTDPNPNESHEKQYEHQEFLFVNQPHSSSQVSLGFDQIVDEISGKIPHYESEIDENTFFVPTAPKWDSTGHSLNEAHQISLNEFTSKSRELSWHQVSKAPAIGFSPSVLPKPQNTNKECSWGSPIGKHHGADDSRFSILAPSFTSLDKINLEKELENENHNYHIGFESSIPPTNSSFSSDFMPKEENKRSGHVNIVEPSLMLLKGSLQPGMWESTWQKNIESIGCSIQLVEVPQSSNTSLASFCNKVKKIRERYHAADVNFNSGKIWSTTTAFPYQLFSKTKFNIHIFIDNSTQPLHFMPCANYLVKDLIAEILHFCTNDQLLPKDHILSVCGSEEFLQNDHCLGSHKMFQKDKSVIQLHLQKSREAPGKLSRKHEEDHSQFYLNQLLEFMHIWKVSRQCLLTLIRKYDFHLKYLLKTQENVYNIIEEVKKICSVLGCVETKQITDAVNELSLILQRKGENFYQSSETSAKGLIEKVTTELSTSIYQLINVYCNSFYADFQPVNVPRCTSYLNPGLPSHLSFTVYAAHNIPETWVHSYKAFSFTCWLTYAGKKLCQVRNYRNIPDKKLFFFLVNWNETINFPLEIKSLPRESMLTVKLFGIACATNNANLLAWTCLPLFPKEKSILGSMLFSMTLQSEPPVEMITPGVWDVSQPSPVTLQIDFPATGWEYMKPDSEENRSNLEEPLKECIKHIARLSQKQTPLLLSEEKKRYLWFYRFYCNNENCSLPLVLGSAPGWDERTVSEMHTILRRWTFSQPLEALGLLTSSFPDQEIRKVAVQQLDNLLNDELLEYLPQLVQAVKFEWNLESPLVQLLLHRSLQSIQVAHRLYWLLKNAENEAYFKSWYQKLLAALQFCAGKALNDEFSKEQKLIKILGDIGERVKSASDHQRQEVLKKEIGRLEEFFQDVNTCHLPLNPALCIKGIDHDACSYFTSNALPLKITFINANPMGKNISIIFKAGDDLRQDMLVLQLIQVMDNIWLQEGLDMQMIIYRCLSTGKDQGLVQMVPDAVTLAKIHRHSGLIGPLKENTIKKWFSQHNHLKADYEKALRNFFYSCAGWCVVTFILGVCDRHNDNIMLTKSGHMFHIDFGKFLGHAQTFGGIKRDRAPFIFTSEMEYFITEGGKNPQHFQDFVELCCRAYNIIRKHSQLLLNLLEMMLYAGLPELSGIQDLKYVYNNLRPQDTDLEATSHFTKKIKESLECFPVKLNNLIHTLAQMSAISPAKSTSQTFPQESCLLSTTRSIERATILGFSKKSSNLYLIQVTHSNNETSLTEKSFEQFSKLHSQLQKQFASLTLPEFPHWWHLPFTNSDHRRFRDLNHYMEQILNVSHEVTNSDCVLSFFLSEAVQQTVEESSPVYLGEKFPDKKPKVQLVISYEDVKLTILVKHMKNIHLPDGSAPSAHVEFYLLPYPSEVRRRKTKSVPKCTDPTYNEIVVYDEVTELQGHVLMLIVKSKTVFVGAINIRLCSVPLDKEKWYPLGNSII
PI3Kα, sequence (P42336 whole entry, species assumed): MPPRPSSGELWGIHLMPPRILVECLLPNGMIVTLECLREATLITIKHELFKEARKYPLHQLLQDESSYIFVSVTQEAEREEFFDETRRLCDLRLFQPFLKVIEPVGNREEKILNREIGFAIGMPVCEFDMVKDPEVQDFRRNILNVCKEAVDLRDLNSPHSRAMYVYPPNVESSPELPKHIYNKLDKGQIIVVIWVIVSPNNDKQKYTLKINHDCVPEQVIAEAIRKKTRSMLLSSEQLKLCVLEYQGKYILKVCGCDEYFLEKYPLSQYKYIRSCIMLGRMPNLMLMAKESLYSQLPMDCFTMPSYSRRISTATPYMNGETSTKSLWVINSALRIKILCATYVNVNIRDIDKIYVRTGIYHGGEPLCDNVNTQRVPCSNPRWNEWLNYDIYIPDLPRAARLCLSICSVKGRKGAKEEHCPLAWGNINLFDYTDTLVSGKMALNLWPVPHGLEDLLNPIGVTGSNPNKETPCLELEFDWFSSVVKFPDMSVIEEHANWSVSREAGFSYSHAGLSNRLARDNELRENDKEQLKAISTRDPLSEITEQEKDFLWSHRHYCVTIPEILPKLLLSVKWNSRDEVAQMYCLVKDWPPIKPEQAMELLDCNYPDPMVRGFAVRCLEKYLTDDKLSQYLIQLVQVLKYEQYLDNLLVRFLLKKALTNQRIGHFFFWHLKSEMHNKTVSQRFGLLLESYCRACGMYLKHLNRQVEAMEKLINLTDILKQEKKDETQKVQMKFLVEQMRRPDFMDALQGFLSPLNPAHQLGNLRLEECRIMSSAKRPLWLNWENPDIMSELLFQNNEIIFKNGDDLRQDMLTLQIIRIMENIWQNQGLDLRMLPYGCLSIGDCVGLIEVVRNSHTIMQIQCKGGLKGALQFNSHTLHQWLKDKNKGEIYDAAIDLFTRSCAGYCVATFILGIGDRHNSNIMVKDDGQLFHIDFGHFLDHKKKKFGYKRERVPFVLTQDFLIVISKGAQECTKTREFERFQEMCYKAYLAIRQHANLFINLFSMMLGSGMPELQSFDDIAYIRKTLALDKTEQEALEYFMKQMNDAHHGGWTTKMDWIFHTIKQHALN
PI3Kα, sequence (P27986 whole entry partner, species assumed): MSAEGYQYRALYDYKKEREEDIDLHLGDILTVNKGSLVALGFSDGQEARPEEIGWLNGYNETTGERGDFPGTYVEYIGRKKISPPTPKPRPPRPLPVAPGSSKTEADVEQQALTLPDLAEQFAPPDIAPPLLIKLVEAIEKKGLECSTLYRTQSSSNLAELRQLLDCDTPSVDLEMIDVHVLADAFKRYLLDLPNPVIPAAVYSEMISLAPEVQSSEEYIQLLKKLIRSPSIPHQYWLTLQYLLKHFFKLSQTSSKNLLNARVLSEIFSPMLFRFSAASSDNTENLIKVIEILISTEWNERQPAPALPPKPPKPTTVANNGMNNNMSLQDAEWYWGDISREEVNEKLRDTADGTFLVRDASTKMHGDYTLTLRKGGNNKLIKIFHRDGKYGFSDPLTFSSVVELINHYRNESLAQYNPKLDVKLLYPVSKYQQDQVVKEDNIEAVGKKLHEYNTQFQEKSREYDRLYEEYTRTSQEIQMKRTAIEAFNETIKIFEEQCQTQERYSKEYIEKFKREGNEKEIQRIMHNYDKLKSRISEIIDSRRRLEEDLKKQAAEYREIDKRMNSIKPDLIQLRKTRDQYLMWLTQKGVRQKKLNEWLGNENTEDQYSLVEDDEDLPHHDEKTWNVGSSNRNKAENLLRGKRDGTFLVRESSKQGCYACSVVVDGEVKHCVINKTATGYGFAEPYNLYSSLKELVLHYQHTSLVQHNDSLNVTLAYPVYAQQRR
PI4K2α, sequence (Q9BTU6 whole entry): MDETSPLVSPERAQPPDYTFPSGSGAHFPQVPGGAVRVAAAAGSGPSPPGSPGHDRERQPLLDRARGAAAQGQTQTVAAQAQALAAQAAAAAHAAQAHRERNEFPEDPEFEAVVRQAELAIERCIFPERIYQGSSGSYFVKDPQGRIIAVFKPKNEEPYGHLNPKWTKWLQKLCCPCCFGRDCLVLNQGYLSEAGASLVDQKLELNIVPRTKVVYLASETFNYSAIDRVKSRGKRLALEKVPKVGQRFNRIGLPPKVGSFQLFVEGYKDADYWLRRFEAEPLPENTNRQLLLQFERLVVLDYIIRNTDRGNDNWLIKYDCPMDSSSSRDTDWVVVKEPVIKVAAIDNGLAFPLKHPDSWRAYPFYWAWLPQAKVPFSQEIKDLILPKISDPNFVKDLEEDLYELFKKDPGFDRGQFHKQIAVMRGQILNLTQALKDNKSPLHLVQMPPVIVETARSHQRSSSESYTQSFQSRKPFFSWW
T2 sequence (O02810 whole entry): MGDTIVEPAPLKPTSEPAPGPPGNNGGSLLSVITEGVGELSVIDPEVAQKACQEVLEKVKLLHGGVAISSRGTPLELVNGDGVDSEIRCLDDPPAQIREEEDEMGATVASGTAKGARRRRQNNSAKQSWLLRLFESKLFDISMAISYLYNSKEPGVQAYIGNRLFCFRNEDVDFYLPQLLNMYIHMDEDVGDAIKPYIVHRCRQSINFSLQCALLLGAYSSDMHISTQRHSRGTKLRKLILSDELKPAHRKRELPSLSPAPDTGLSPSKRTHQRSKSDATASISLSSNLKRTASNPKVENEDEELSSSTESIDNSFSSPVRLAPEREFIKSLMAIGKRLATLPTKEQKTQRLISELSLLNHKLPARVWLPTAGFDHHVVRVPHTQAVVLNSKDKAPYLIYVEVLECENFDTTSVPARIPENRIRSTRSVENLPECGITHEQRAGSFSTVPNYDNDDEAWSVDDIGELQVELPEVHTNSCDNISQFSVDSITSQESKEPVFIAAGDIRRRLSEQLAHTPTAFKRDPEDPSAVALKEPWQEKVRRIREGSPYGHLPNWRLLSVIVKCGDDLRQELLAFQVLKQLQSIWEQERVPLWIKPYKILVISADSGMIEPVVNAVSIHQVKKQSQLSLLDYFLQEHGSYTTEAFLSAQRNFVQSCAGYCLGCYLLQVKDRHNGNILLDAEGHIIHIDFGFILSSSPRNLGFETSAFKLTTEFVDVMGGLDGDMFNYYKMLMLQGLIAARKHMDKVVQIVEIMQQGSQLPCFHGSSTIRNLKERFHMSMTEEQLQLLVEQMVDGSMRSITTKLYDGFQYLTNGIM

In the case of `COc1ccc(-c2sc(NC(C)C3CCOCC3)nc2C)cc1S(=O)(=O)Nc1ccccc1Cl` (stereo not shown) [Compound B], the IC50 (PI4KIIIalpha) is reported as greater than 10 µM, the CC50 [1] is reported as greater than 100 µM and the survival (EV-71 virus) is reported as “A dose response was observed in survival”. The “colony formation in soft agar and on plastic” value (lung cancer cell lines [2]) was “reduced”, the EC50 [3] was 0.019 µM and the IC50 (PI4KIIIbeta) was less than 0.1 µM. For the same compound, the PI4P levels (lung cancer cell lines [4]) was “decreased PI4P levels in a dose-dependent fashion”, the metastases [5] was “No metastases were detectable” and the “sizes of the primary tumors vs vehicle alone” value [5] was “smaller”. For the same compound, the EC50 [6] was 2.1 µM, the “migration and invasion in Boyden chambers” value (lung cancer cell lines [7]) was “reduced” and the CC50 [8] was 131 µM. The “cell proliferation in monolayer culture” value (lung cancer cell lines [9]) was “reduced cell proliferation in monolayer culture”.
For `COc1ccc(-c2sc(NC(=O)C(C)(C)C)nc2C)cc1S(=O)(=O)Nc1ccc(O)cc1` [PI4KIIIbeta-IN-10], the IC50 (PI3KC2γ) is given as roughly 1 µM, the “colony formation in soft agar and on plastic” value (lung cancer cell lines [2]) is given as “reduced” and the “inhibition of PI4K2α” value (PI4K2α) is given as less than 20%. For the same compound, the “inhibition of PI3Kβ” value (PI3Kβ) was less than 20%, the PI4P levels (lung cancer cell lines [4]) was “decreased PI4P levels in a dose-dependent fashion” and the IC50 (PI3Kα) was roughly 10 µM. The “migration and invasion in Boyden chambers” value (lung cancer cell lines [7]) was “reduced”, the “inhibition of PI4K2β” value (PI4K2β) was less than 20% and the “cell proliferation in monolayer culture” value (lung cancer cell lines [9]) was “reduced cell proliferation in monolayer culture”.
